One test deals with H. pylori strain 26695. Nature of the test: Growth curve method / MIC in liquid culture, strain 26695. It counts as cell-based, Helicobacter pylori. The settings on record: strain 26695; for MIC: read-out: MIC; for % inhibition of H. pylori cell cultures at maximum inhibitor solubility: at maximum solubility in 3.5% DMSO; for growth inhibition: 200 μM, partially precipitated. On the procedure:
The representative PNP inhibitor from H. pylori included in this study was immucillin A. The experiment was conducted using the growth curve method (two-fold serial dilutions in liquid medium). The tested H. pylori strains were cultured in Petri dishes with BHI solid medium supplemented with 10% FBS and 1% H. pylori Selective Supplement antibiotic kit, in anaerostats under microaerophilic conditions (5% 02, 10% CO2, 85% N2) at 37° C. for 3 days. Liquid culture of H. pylori was conducted overnight with shaking at 37° C. under microaerophilic conditions in BHI medium supplemented with 10% FBS and 1% H. pylori Selective Supplement antibiotic kit. Subsequently, for the essential experiment of determining the minimum inhibitory concentration (MIC), double strengthened liquid BHI medium was prepared, that is, supplemented with 20% FBS and a 2% set of H. pylori Selective Supplement antibiotics.
Bacterial proliferation inhibition experiments were carried out in 24-deep-well 2 ml flat-bottomed plates at a solution volume per well of 0.5 ml. In a single well, double strengthened (relative to the concentration planned for testing) solutions of the test inhibitor and double strengthened liquid BHI medium inoculated with H. pylori (10^4-10^5 CFU/ml in the final volume in the well, corresponding to the optical density of the culture OD600=0.05) were mixed together in a 1:1 ratio.
Kanamycin at a concentration of 25 μg/ml (Irie et al., 1997) was used as a positive control, while Mili-Q deionized water and BHI medium not inoculated with bacteria were used as negative controls. Plates were shaken at 37° C., under microaerophilic conditions. […] After 24 hours, the OD600 of samples containing the negative control, i.e. with Mili-Q deionized water, was about 1.2-1.4, corresponding to a bacterial concentration of about […].
In addition, the method proposed by Knezevic et al. (2018) was used to check whether the observed OD600 was from live bacterial cells. For this purpose, an equal volume of Christensen's double strength urea broth (that is, containing twice the concentration of all components) was added to the wells after incubation, and the plates were additionally incubated for 4 hours in an oxygen atmosphere at 37° C. During incubation, in wells with urease produced by live bacteria, urea is converted to ammonia and carbon dioxide, changing the pH of the solution and thus the colour of the phenol red indicator contained in the medium (from orange to purple).
All experiments were performed in triplicate.
The experiments were carried out using the growth curve method as described in Example 3, and the results obtained for two of the compounds tested are shown in FIG. 5. As the water solubility of the compounds tested, with the exception of 2,6-diCl-Pu, is relatively poor, two experiments were carried out: the first with the maximum concentration possible under the experimental conditions in aqueous solution with a small admixture of DMSO, and the second with higher concentrations that led to partial precipitation of the compound.
The antibacterial activity of two compounds, mefloquine (in the form of hydrochloride) and quinine, described in the literature as potent in vitro inhibitors of the PNP enzyme from Plasmodium falciparum (Dziekan et al., 2019), was tested. Using a two-fold serial dilution method in liquid medium (as described in Example 3), the MIC values for mefloquine and quinine were determined against clinical H. pylori strains resistant to MTZ, CLR and MTZ+CLR (M26, M91, M92 and M93), as well as the reference H. pylori strain 26695. Four clinical H. pylori strains isolated from adults, from primary infections (the subjects had never previously been treated against H. pylori infection) were tested. These strains come from the collection of the Department of Microbiology of the Medical University of Wroclaw and were obtained due to collaboration with Prof. Grażyna Gościniak, MD, PhD. […]

Test [1] has as its target T1, PNP from H. pylori strain 26695 (Helicobacter pylori, UniProt P56463).
T1 construct: made in house; host or cells: E. coli
Put plainly: Inhibition of PNP from H. pylori, spectrophotometric phosphorolysis assay. It counts as biochemical. An excerpt: The specific activity of PNP is usually determined using inosine as a substrate, in an assay in which the phosphorolysis product, hypoxanthine, is oxidized to uric acid in a reaction catalysed by xanthine oxidase. However, in the inhibition assay of PNP from H. pylori strain 26695, 7-methylguanosine (m^7Guo) and guanosine (Guo) were used as nucleoside substrates to avoid potential inhibition of xanthine oxidase by the test compounds. Phosphorolysis of these two substrates can be observed using a direct spectrophotometric method in a known manner.
Enzymatic activity was studied in a quartz cuvette with an optical path length of 1 cm or 0.5 cm. The absorbance of the reaction mixture, at the observation wavelength, never exceeded 1.2. The reaction volume was 1 ml or 1.4 ml in cuvettes with optical path lengths of 1 cm and 0.5 cm, respectively. The reaction mixture contained 50 mM Hepes/NaOH buffer, pH 7.0, 50 mM phosphate buffer, pH 7.0 (unless otherwise indicated), nucleoside substrate and inhibitor (with the latter not added to the reference/control reactions). Reactions were usually initiated by adding the enzyme to a cuvette containing the other reaction components. However, in cases where possible slow formation of an inhibitor-enzyme complex was checked, a second variant was also used involving incubation of the enzyme in a reaction mixture containing the inhibitor but lacking the substrate, 7-methylguanosine, and initiation of the reaction by adding this substrate.
In order to determine the inhibition constants and determine the molecular mechanism of inhibition, equations describing different mechanisms of inhibition were fitted to the obtained experimental data. GraphPad Prism 8 program was used. The model best describing the obtained data was selected based on the sum of squares of deviations using the F test for models with different number of parameters and the Akaike criterion (AIC) for models with the same number of parameters.
The following equations were used to describe competitive inhibition, characterized by the inhibition constant Kic, [1], uncompetitive, characterized by the inhibition constant Kiu, [2], non-competitive, characterized by the inhibition constant Kin, [3], and mixed, characterized by the inhibition constants Kiu and Kic, [4] (Segel, 1993):
The last equation can also be represented in the following form, as used by GraphPad Prism software, where Kiu=alpha Kic:
Immucillin A was chosen as the most promising one for potential pharmacological use in combating H. pylori infection because immucillin A has an amino substituent at position 6 of the 9-dazapurine ring, while PNP found in the human body requires a substituent at this position having electron-pairs-hydrogen bond acceptors, such as a substituent in the form of a keto group, to strongly bind the ligand. According to the invention, it is therefore believed that immucillin A will not interact with the host PNP, and thus allow selective inhibition of the PNP from H. pylori. Using the methods described above, the effect of immucillin A on the rate of the 7-methylguanosine (m^7Guo) phosphorolysis reaction catalysed by PNP from H. pylori was examined (FIG. 1). Since it is known (Schramm, 2018) that immucillins form a strongly bound complex with the enzyme relatively slowly, reactions were initiated by adding the substrate, m^7Guo, to a cuvette in which the enzyme was incubated with the inhibitor, as described in Example 1.
Data analysis was also performed as described in this Example. The range of substrate concentrations tested was 10-200 μM or 10-280 μM (shown in FIG. 4), and the range of inhibitor concentrations was chosen according to the observed degree of inhibition of the reaction, in order to obtain a significant degree of inhibition that allows determination of the inhibition mechanism and determination of inhibition constants (see FIG. 4). […]

Where [2] appears, read: 7-methylguanosine substrate, 25° C., pH 7.0, 50 mM phosphate, mixed type model, read-out: Kic.
[3] abbreviates: 7-methylguanosine substrate, 25° C., pH 7.0, 50 mM phosphate, mixed type model, read-out: Kiu.
Where [4] appears, read: 7-methylguanosine substrate, 25° C., pH 7.0, 50 mM phosphate, non-competitive model, read-out: Kin.
[5] abbreviates: 7-methylguanosine substrate, mixed type model.
[6] abbreviates: 7-methylguanosine substrate, 25° C., pH 7.0, 50 mM phosphate, uncompetitive model, read-out: Kiu.
The mark [7] stands for this setting: Helicobacter pylori, inhibitor partially precipitated, actual dissolved concentration lower.

In brackets after ≈: the same amount, converted by molar mass. Several values for one entry are separate records, joined by “and”; a condition that tells them apart may be missing. Equal values may be shown once. Read-outs that look alike come from different tables or passages of the source.

T1 sequence (P56463 whole entry): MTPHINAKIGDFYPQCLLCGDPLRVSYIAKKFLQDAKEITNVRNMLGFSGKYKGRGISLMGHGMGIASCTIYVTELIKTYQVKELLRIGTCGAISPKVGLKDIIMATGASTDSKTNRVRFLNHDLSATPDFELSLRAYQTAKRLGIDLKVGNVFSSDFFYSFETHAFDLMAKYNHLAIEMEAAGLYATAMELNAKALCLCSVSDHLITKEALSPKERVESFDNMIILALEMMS

Take `Clc1nc(Cl)c2[nH]cnc2n1` [2,6-diCl-Pu, 2,6-dichloropurine]: the MIC with H. pylori strain 26695 (Helicobacter pylori) was 473 µg/mL and 2500 µM. Further, in the test with H. pylori strain 26695, the “% inhibition of H. pylori cell cultures at maximum inhibitor solubility” value (“% inhibition of H. pylori cell cultures” below) was 93%.
For `Clc1nc(Cl)c2[nH]cnc2n1` [2,6-dichloropurine], the Ki was 20 ± 4.9 µM in test [1] (setting [2]), 23.5 ± 3.5 µM in test [1] (setting [3]) and 22.2 ± 1.4 µM in test [1] (setting [4]). Besides, the “alpha = Kiu/Kic” value in test [1] (setting [5]) turned out to be 1.17 ± 0.44.
For `c1ccc(CSc2ncnc3nc[nH]c23)cc1` [6-benzylthiopurine], the Ki in test [1] (setting [2]) is 7.5 ± 1.3 µM; in test [1] (setting [3]), 8.1 ± 0.7 µM; in test [1] (setting [4]), 7.9 ± 0.4 µM. The “alpha = Kiu/Kic” value in test [1] (setting [5]) is 1.07 ± 0.27.
Turning to `Clc1nc(OCc2ccccc2)c2[nH]cnc2n1` [6BnO-2Cl-Pu, 6-benzyloxy-2-chloropurine], the inhibition at 350 µM in the test on H. pylori strain 26695 (Helicobacter pylori, 350 μM (91 μg/ml), inhibitor partially precipitated, read-out: % inhibition of H. pylori cell cultures) worked out at 75%. In the test with H. pylori strain 26695, the “% inhibition of H. pylori cell cultures” value stood at 35%. Also, the Ki in test [1] (setting [2]) was 18.3 ± 7.3 µM; in test [1] (setting [3]) it was 4.6 ± 0.5 µM; in test [1] (setting [4]), 6.5 ± 0.4 µM; in test [1] (setting [6]) it was 3.8 ± 0.3 µM. The “alpha = Kiu/Kic” value in test [1] (setting [5]) came out at 0.25 ± 0.12.
With `Clc1nc(SCc2ccccc2)c2[nH]cnc2n1` [6BnS-2Cl-Pu, 6-benzylthio-2-chloropurine], in the test with H. pylori strain 26695 (setting [7]), the minimal inhibitory concentration (MIC) is 69 µg/mL and 250 µM. For the same compound, the “% inhibition of H. pylori cell cultures” value in the test on H. pylori strain 26695 was 92%. Also, the values for the Ki in test [1] (setting [2]), in test [1] (setting [3]) and in test [1] (setting [6]) were 13.2 ± 10.7 µM, 2.1 ± 0.3 µM and 1.8 ± 0.2 µM, respectively. Further, in test [1] (setting [5]), the “alpha = Kiu/Kic” value is listed as 0.16 ± 0.15.
Regarding `OC[C@H]1O[C@@H](n2cnc3c(SCc4ccccc4)nc(Cl)nc32)C[C@@H]1O` [6BnS-2Cl-Pu-9dr, 2-chloro-6-benzylthiopurine-2′-deoxy-9-ribofuranoside], in the test on H. pylori strain 26695, the “growth inhibition” value is “complete growth inhibition”. Besides, the “% inhibition of H. pylori cell cultures” value with H. pylori strain 26695 is listed as 5%. The Ki in test [1] (setting [2]) worked out at 6.2 ± 2.4 µM; in test [1] (setting [3]), 2.9 ± 0.5 µM; in test [1] (guanosine as a substrate, mixed type model, read-out: Kic), 12.6 ± 5.7 µM; in test [1] (guanosine as a substrate, mixed type model, read-out: Kiu), 2 ± 0.2 µM. Further, the “alpha = Kiu/Kic” value worked out at 0.47 ± 0.24 in test [1] (setting [5]) and 0.16 ± 0.08 in test [1] (guanosine as a substrate, mixed type model).
Take `c1ccc(CSc2ncnc3nc[nH]c23)cc1` [6BnS-Pu, 6-benzylthiopurine]: the MIC in the test with H. pylori strain 26695 (setting [7]) was 48 µg/mL and 200 µM. In the test on H. pylori strain 26695, the “growth inhibition” value is reported as “Complete inhibition” and the “% inhibition of H. pylori cell cultures” value amounted to 83%.
With `NC[C@H]1O[C@H](O[C@H]2[C@H](O)[C@@H](O[C@H]3O[C@H](CO)[C@@H](O)[C@H](N)[C@H]3O)[C@H](N)C[C@@H]2N)[C@H](O)[C@@H](O)[C@@H]1O` [Kanamycin, kanamycin], the inhibition at 52 µM with H. pylori strain 26695 (Helicobacter pylori, kanamycin 25 μg/ml (52 μM), positive control, read-out: % inhibition of H. pylori cell cultures) lay within 92 to 96%.
For `Nc1ncnc2c([C@@H]3N[C@H](CO)C(O)[C@@H]3O)c[nH]c12` (stereo partly shown) [immucillin A], the MIC in the test on H. pylori strain 26695 (Helicobacter pylori) is 80 µM (≈ 21.2 µg/mL). This compound gave a Ki in test [1] of 0.0013 ± 0.0002 µM.

The MIC is the smallest concentration in the dilution series that meets the test's criterion for growth inhibition. Broadly, the inhibition is the drop in the measured response relative to a control, in per cent.

The values are drawn from US20250195498A1, “INHIBITOR OF CELLULAR PURINE NUCLEOTIDE SALVAGE PATHWAY ENZYME FOR USE IN THE TREATMENT AND/OR PREVENTION OF HELICOBACTER PYLORI INFECTION AND/OR DISEASE ASSOCIATED WITH SUCH INFECTION AND PHARMACEUTICAL COMPOSITION COMPRISING THE SAME” (UNIWERSYTET WARSZAWSKI, priority 2022, published 2025).
